Data on five compounds can be found in patent publication EP3800188A1, “SUBSTITUTED PYRAZOLOPYRIMIDINES AS IRAK4 INHIBITORS” (Bayer AG, priority 2019, dated 2021).

Molecules are shown by their SMILES. Where two headings read alike, the source gives them in different places.

Data set [1] addresses T1, human IRAK4 (Homo sapiens, UniProt Q9NWZ3).
T1 construct: GST (N); made in house; host or cells: baculovirus-infected Hi5 (BTI-TN-5B1-4) insect cells
T1 sequence (Q9NWZ3 1-460): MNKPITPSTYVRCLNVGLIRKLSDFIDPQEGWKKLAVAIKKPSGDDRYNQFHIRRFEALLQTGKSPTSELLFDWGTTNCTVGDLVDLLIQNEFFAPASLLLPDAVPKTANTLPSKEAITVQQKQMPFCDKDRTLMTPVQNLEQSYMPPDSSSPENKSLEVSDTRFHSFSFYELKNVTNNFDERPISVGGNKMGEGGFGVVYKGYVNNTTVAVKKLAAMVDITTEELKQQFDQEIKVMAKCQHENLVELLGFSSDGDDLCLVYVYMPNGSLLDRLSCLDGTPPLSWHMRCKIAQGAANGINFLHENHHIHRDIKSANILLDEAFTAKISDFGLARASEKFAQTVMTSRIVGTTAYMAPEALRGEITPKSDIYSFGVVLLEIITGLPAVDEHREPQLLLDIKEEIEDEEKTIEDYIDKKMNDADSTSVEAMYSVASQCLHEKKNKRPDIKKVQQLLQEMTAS
The data set is described as follows: Human IRAK4 kinase activity inhibition assay (IRAK4 TR-FRET assay). The format is biochemical. The following applies: 1 mM ATP, GST-human IRAK4, average or median values. Summed up: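 GST-IRAK4 from insect cells (about 0.2 nM, linear range) was preincubated 15 min with compound (11 concentrations, 20 µM–0.073 nM) in HEPES pH 7.5 with MgCl2 and DTT before kinase reaction on a biotinylated peptide. Phosphopeptide was detected by TR-FRET (Eu anti-mouse-IgG/anti-phosphoserine/streptavidin-XL665, 1 h at 22°C) as the 665/620 nm ratio, normalized to no-compound and no-enzyme controls.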
On the technique in general: Time-resolved FRET reads energy transfer from a long-lived donor to a nearby acceptor.

Data set [2] relates to human PBMCs. The data set is described as follows: In vitro LPS-induced cytokine (TNF-α) production in human PBMCs. The data set is classed as cell-based. The following applies: PBMC, 0.1 µg/mL LPS, 24 hours, 30 min preincubation, read-out: activity (LPS-induced TNF-α secretion in human PBMCs). On the procedure: The effect of the compounds of the general formula (I) on induced cytokine production in human PBMCs was examined.
Cytokine production was induced here by LPS, a TLR4 ligand, which leads to activation of the IRAK4-mediated signal path.
The human PBMCs were obtained from anti-coagulated human whole blood. To this end, 15 mL of Ficoll-Paque (Biochrom, Cat. No. L6115) were initially charged in Leucosep tubes and 20 mL of human blood were added. After centrifugation of the blood at 800 g for 15 min at room temperature, the plasma including the platelets was removed and discarded. The PBMCs were transferred into centrifugation tubes and made up with PBS (phosphate-buffered saline) (Gibco, Cat. No. 14190). The cell suspension was centrifuged at room temperature at 250 g for 10 min and the supernatant was discarded. The PBMCs were resuspended in complete medium (RPMI 1640, without L-glutamine (PAA, Cat. No. E15-039), 10% FCS; 50 U/mL penicillin, 50 µg/mL streptomycin (PAA, Cat. No. P11-010) and 1% L-glutamine (Sigma, Cat. No. G7513)). The assay was also carried out in complete medium. The PBMCs were sown in 96-well plates at a cell density of 2.5x10^5 cells/well. The compounds according to the invention were subjected to serial dilution in a constant volume of 100% DMSO and used in the assay at 8 different concentrations in the range from 10 µM to 3 nM such that the final DMSO concentration was 0.4% DMSO. Prior to the actual stimulation, the cells were then preincubated therewith for 30 min. To induce cytokine secretion, the cells were stimulated with 0.1 µg/mL LPS (Sigma, Escherichia coli 0128:B12, Cat. No. L2887) for 24 hours. Cell viability was determined using the CellTiter-Glo luminescent assay (Promega, Cat. No. G7571 (G755/G756A)) in accordance with the manufacturer's instructions. The amount of secreted TNF-α in the cell culture supernatant was determined using the Human ProInflammatory 9-Plex Tissue Culture Kit (MSD, Cat. No. K15007B) in accordance with the instructions of the manufacturer. By way of example, Example Compounds II-2, I-40, I-56, I-61 have activity ≤ 500 nM.

Data set [3] can be described thus: Metabolic stability in human liver microsomes. The following applies: 1 µM compound; for CLblood, human microsomes: hepatic in vivo blood clearance calculated with well stirred liver model, '(stable)' given beside < 0.01; for Fmax, human microsomes: maximal oral bioavailability calculated with well stirred liver model, 0.5 mg/mL protein, '(stable)' given beside 100.
Description: (§1) The in vitro metabolic stability of test compounds was determined by incubating them at 1 µM in a suspension liver microsomes in 100 mM phosphate buffer, pH7.4 (NaH2PO4 x H2O + Na2HPO4 x 2H2O) and at a protein concentration of 0.5 mg/mL at 37° C. The microsomes were activated by adding a co-factor mix containing 8 mM Glukose-6-Phosphat, 4 mM MgCl2, 0.5 mM NADP and 1 IU/mL G-6-P-Dehydrogenase in phosphate buffer, pH 7.4. The metabolic assay was started shortly afterwards by adding the test compound to the incubation at a final volume of 1 mL. Organic solvent in the incubations was limited to ≤0.01 % dimethylsulfoxide (DMSO) and ≤1% acetonitril. During incubation, the microsomal suspensions were continuously shaken at 580 rpm, and aliquots were taken at 2, 8, 16, 30, 45 and 60 min, to which equal volumes of cold methanol were immediately added. Samples were frozen at -20° C over night, subsequently centrifuged for 15 min at 3000 rpm and the supernatant was analyzed with an Agilent 1200 HPLC-system with LCMS/MS detection.
(§2) The half-life of a test compound was determined from the concentration-time plot. From the half-life the intrinsic clearances were calculated. Together with the additional parameters liver blood flow, specific liver weight and microsomal protein content the hepatic in vivo blood clearance (CL) and the maximal oral bioavailability (Fmax) were calculated using the "well stirred" liver model. The following parameter values were used: Liver blood flow - 1.32 L/h/kg (human), 2.1 L/h/kg (dog); specific liver weight - 21 g/kg (human), 39 g/kg (dog); microsomal protein content - 40 mg/g.

The conditions of data set [4]: 1 µM, pH 7.4.
Description: as §1, §2
A short description of data set [5]: Metabolic stability in dog liver microsomes. The data set is classed as in vitro ADME. The conditions noted are these: 1 µM compound; for CLblood, dog microsomes: hepatic in vivo blood clearance calculated with well stirred liver model, '(stable)' given beside < 0.01; for Fmax, dog microsomes: maximal oral bioavailability calculated with well stirred liver model, 0.5 mg/mL protein, '(stable)' given beside 100. How it is done: From the half-life the intrinsic clearances were calculated.

`C[C@H]1C[C@H](Nc2nc(N3CCC(C(C)(C)O)CC3)c3cnn(-c4cccc(C(F)(F)F)c4)c3n2)CN1` [Example I-40, 2-[1-(6-{[(3S,5S)-5-methylpyrrolidin-3-yl]amino}-1-[3-(trifluoromethyl)phenyl]-1H-pyrazolo[3,4-d]pyrimidin-4-yl)piperidin-4-yl]propan-2-ol]: the IC50 in data set [1] is 3.68 nM. The IC50 in data set [2] is not above 500 nM. In addition, in data set [3], the “CLblood, human microsomes” value was 0.07 L/h/kg and the “Fmax, human microsomes” value is 95%.

As to `O=C1C[C@H](Nc2nc(N3CC(CC(=O)N4CC5CC(C4)O5)C3)c3cnn(-c4cccc(C(F)(F)F)c4)c3n2)CN1` [Example I-52, (4S)-4-[(4-{3-[2-(6-oxa-3-azabicyclo[3.1.1]heptan-3-yl)-2-oxoethyl]azetidin-1-yl}-1-[3-(trifluoromethyl)phenyl]-1H-pyrazolo[3,4-d]pyrimidin-6-yl)amino]pyrrolidin-2-one], the IC50 in data set [1] is 7.99 nM. Besides, in data set [4], the “CLblood, human microsomes” value is on record as < 0.01 (stable) L/h/kg and the “Fmax, human microsomes” value was 100 (stable) %.

As to `CS(=O)(=O)[C@H]1C[C@H](Nc2nc(N3CC(N4CCOCC4)C3)c3cnn(-c4cccc(C(F)(F)F)c4)c3n2)C1` [Example I-56, N-[trans-3-(methylsulfonyl)cyclobutyl]-4-[3-(morpholin-4-yl)azetidin-1-yl]-1-[3-(trifluoromethyl)phenyl]-1H-pyrazolo[3,4-d]pyrimidin-6-amine], in data set [1], the IC50 came out at 3.46 nM. In addition, in data set [5], the “CLblood, dog microsomes” value was 0.06 L/h/kg and the “Fmax, dog microsomes” value is 97%. For the same compound, in data set [2], the IC50 was not above 500 nM. In data set [3], the “CLblood, human microsomes” value is 0.06 L/h/kg and the “Fmax, human microsomes” value was 95%.

`CC1(O)CCN(C2CN(c3nc(N[C@H]4C[C@H](S(C)(=O)=O)C4)nc4c3cnn4-c3cccc(C(F)(F)F)c3)C2)CC1` [Example I-61, 4-methyl-1-[1-(6-{[trans-3-(methylsulfonyl)cyclobutyl]amino}-1-[3-(trifluoromethyl)-phenyl]-1H-pyrazolo[3,4-d]pyrimidin-4-yl)azetidin-3-yl]piperidin-4-ol]: the IC50 in data set [1] worked out at 3.28 nM. In data set [2], the IC50 is not above 500 nM. For the same compound, in data set [3], the “CLblood, human microsomes” value is reported as 0.31 L/h/kg and the “Fmax, human microsomes” value is listed as 77%.

The compound `O=S1(=O)CCC(Nc2nc(N3CC(N4CCOCC4)C3)c3cnn(-c4cccc(C(F)F)c4)c3n2)CC1` [II-2, 1-[3-(difluoromethyl)phenyl]-N-(1,1-dioxidotetrahydro-2H-thiopyran-4-yl)-4-[3-(morpholin-4-yl)azetidin-1-yl]-1H-pyrazolo[3,4-d]pyrimidin-6-amine] yielded an IC50 in data set [1] of 6.68 nM. Further, in data set [5], the “CLblood, dog microsomes” value is reported as 0.07 L/h/kg and the “Fmax, dog microsomes” value is listed as 97%. Moreover, in data set [2], the IC50 is not above 500 nM. In data set [3], the “CLblood, human microsomes” value is given as 0.15 L/h/kg and the “Fmax, human microsomes” value was 88%.
